Assays:
OATP1B1 = target: T1, OATP1B1 (Homo sapiens, UniProt Q9Y6L6); test: Substrate of OATP1B1; assay type: in vitro ADME
T1 sequence (Q9Y6L6 1-691): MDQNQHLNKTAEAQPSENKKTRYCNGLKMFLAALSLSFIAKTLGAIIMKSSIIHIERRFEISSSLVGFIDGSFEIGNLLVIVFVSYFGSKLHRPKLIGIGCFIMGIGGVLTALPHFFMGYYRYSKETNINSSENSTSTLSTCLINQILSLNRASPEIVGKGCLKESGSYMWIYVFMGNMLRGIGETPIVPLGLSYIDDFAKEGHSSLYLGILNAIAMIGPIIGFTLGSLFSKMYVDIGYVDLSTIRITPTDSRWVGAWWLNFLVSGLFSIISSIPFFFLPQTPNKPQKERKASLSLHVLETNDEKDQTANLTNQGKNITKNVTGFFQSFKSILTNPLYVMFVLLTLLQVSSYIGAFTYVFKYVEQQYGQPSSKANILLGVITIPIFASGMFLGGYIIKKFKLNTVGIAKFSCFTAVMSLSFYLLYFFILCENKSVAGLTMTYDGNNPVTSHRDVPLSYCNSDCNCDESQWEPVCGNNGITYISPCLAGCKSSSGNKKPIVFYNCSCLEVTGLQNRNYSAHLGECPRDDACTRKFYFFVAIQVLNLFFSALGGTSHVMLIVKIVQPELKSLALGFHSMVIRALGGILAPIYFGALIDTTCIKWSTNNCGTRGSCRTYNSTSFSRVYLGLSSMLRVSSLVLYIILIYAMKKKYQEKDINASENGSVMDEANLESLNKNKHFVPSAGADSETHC

[1] = Elagolix apparent terminal phase elimination half-life; details: human, in vivo; read-out: apparent terminal phase elimination half-life (t1/2)
[2] = Phase 1 open-label study: coadministration of combined oral contraceptive (EE+LNG) with elagolix sodium, pharmacokinetics, safety and tolerability; assay type: in vivo, human; details: healthy premenopausal female subjects
Experimental: Objective: To evaluate the effect of elagolix on the pharmacokinetics, safety, and tolerability of a single dose of a combined oral contraceptive (COC) containing EE and LNG in healthy premenopausal female subjects. […] [table] […] Diagnosis and Main Criteria for Inclusion: Subjects were premenopausal females, and age was between 18 and 49 years, inclusive. Test Product, Dose/Strength/Concentration, and Mode of Administration: […] EE/LNG 0.02 mg/0.1 mg tablet; All study drugs were administered orally. Duration of Treatment: […] EE/LNG: 0.02 mg/0.1 mg on two separate occasions. Criteria for Evaluation: Pharmacokinetic: Cmax, Tmax, t1/2 and AUC. Safety: Vital signs, physical examinations, laboratory tests, and adverse events. […] The tabulation of the number of subjects with treatment-emergent adverse events also was provided with further breakdowns by severity rating and relationship to study drug.

SMILES: COc1cccc(-c2c(C)n(Cc3c(F)cccc3C(F)(F)F)c(=O)n(C[C@H](NCCCC(=O)O)c3ccccc3)c2=O)c1F [elagolix, 4-((R)-2-[5-(2-fluoro-3-methoxy-phenyl)-3-(2-fluoro-6-trifluoromethyl-benzyl)-4-methyl-2,6-dioxo-3,6-dihydro-2H-pyrimidin-1-yl]-1-phenyl-ethylamino)-butyric acid]
- substrate of OATP1B1 (OATP1B1): substrate
- half-life [1]: 4 to 6 h
- tolerability of co-administration of elagolix and EE/LNG [2]: generally well tolerated
